Data taken from PMC9606955, “In Vitro Activity of Essential Oils Distilled from Colombian Plants against Candida auris and Other Candida Species with Different Antifungal Susceptibility Profiles” (Molecules, 2022).
In brackets after ≈: the same amount, converted by molar mass.

Tests used:
[1] = test system: C. krusei ATCC 6258; test: MIC, CLSI M27 broth microdilution; type: cell-based, Candida krusei; settings: Pichia kudriavzevii, ATCC6258, 24 h, read-out: GM MIC
Excerpt: (§1) The fungal strains used in this study were C. albicans ATCC 10231, C. albicans ATCC 64550, C. parapsilosis ATCC 22019, C. tropicalis ATCC 750, C. tropicalis ATCC 200956 (resistant to azoles and AMB), C. glabrata LMDM 34 (resistant to echinocandins), C. metapsilosis MUM 15.12, C. orthopsilosis MUM 17.13, C. lusitaniae MUM 17.08, C. krusei ATCC 6258 (Issatchenkia orientalis ATCC 6258), and C. auris CDC B11903. Additionally, nine clinical isolates were included: C. parapsilosis Synlab 406 (FLC-resistant) and eight C. auris isolates identified by MALDI-TOF MS (Bruker Daltonics, Bremen, Germany) according to Zhao et al.. These yeasts were cultured on Sabouraud Dextrose Agar (SDA; Sigma-Aldrich, St. Louis, MO, USA) for 24 h at 35 °C.
(§2) Antifungal susceptibility testing was performed according to Clinical and Laboratory Standards Institute M27, 4th Edition (CLSI standard M27, 4th Edition). Some modifications were applied for evaluation of the antifungal activity of EOs and terpenes. Initially, a screening was carried out to determine the antifungal activity of the EOs and of commercial terpenes. Stock concentrations of EOs and terpenes were prepared at 512 µg/mL and an inoculum of 2.5 × 10^3 CFU/mL of each yeast was prepared in RPMI 1640-MOPS (Sigma- Aldrich St. Louis, MO, USA). Thereafter, 100 µL of each stock solution of EOs or terpenes was dispensed in 96-well microdilution plates (Corning®, Costar®, NY, USA) and 100 µL of each yeast inoculum was added. […] Microdilution plates were incubated at 35 °C and, after 24 h, the presence or absence of growth was visually checked using a manual mirror viewer and then compared with the amount of growth in the control (no EO or terpene). Compounds able to inhibit yeast growth were tested to determine the minimal inhibitory concentration (MIC) as follows: 100 µL of 10 two-fold dilutions of the EOs or commercial terpenes was dispensed in 96-well microplates and the yeast inoculum was added. Final concentrations of the EOs or terpenes ranged from 0.5 µg/mL to 256 µg/mL. Microdilution plates were incubated at 35 °C for 24 h. MICs were visually determined at the lowest concentration that produced visual inhibition compared to the growth control. The assays were performed at least three times in duplicate on different days. The results were expressed as geometric means (GM) and ranges. As an antifungal susceptibility testing control, the activity of ITC and AMB against the reference strains C. krusei ATCC 6258 and C. parapsilosis ATCC 22019 was evaluated in all experiments following the CLSI standard M27, 4th Edition. It was mandatory that the MIC values remained in the accepted range.

[2] = test system: C. tropicalis ATCC 200956; test: MIC, CLSI M27 broth microdilution; type: cell-based, Candida tropicalis; settings: Candida tropicalis, ATCC200956, 24 h, read-out: GM MIC
Excerpt: as §1, §2

[3] = test system: C. metapsilosis MUM 15.12; test: MIC, CLSI M27 broth microdilution; type: cell-based, Candida metapsilosis; settings: Lodderomyces metapsilosis, MUM15.12, 24 h, read-out: GM MIC
Excerpt: as §1, §2

[4] = test system: C. orthopsilosis MUM 17.13; test: MIC, CLSI M27 broth microdilution; type: cell-based, Candida orthopsilosis; settings: Lodderomyces orthopsilosis, MUM17.13, 24 h, read-out: GM MIC
Excerpt: as §1, §2

[5] = test system: C. lusitaniae MUM 17.08; test: MIC, CLSI M27 broth microdilution; type: cell-based, Candida lusitaniae
Excerpt: as §1, §2

[6] = test system: C. auris CDC B11903; test: MIC, CLSI M27 broth microdilution; type: cell-based, Candida auris
Excerpt: as §1, §2

[7] = test system: C. auris Ca 13; test: MIC, CLSI M27 broth microdilution; type: cell-based, Candida auris
Excerpt: as §1, §2

[8] = test system: C. auris Ca 17; test: MIC, CLSI M27 broth microdilution; type: cell-based, Candida auris; settings: Candidozyma auris, CA17, 24 h, read-out: GM MIC
Excerpt: as §1, §2

[9] = test system: C. auris Ca 1; test: MIC, CLSI M27 broth microdilution; type: cell-based, Candida auris
Excerpt: as §1, §2

[10] = test system: C. auris Ca 32; test: MIC, CLSI M27 broth microdilution; type: cell-based, Candida auris; settings: Candidozyma auris, CA32, 24 h, read-out: GM MIC
Excerpt: as §1, §2

[11] = test system: C. auris Ca 41; test: MIC, CLSI M27 broth microdilution; type: cell-based, Candida auris
Excerpt: as §1, §2

[12] = test system: C. auris Ca 45; test: MIC, CLSI M27 broth microdilution; type: cell-based, Candida auris
Excerpt: as §1, §2

[13] = test system: C. auris Ca 46; test: MIC, CLSI M27 broth microdilution; type: cell-based, Candida auris; settings: Candidozyma auris, CA46, 24 h, read-out: GM MIC
Excerpt: as §1, §2

[14] = test system: C. auris Ca 9; test: MIC, CLSI M27 broth microdilution; type: cell-based, Candida auris; settings: Candidozyma auris, CA9, 24 h, read-out: GM MIC
Excerpt: as §1, §2

[15] = test system: C. parapsilosis Synlab 406; test: MIC, CLSI M27 broth microdilution; type: cell-based, Candida parapsilosis
Excerpt: as §1, §2

[16] = test system: Candida spp.; test: Screening of antifungal activity at 256 µg/mL against twenty strains; type: cell-based; settings: screening at 256 µg/mL
Excerpt: as §1
Antifungal susceptibility testing was performed according to Clinical and Laboratory Standards Institute M27, 4th Edition (CLSI standard M27, 4th Edition). Some modifications were applied for evaluation of the antifungal activity of EOs and terpenes. Initially, a screening was carried out to determine the antifungal activity of the EOs and of commercial terpenes. Stock concentrations of EOs and terpenes were prepared at 512 µg/mL and an inoculum of 2.5 × 10^3 CFU/mL of each yeast was prepared in RPMI 1640-MOPS (Sigma- Aldrich St. Louis, MO, USA). Thereafter, 100 µL of each stock solution of EOs or terpenes was dispensed in 96-well microdilution plates (Corning®, Costar®, NY, USA) and 100 µL of each yeast inoculum was added. […] MICs were visually determined at the lowest concentration that produced visual inhibition compared to the growth control. […] The results were expressed as geometric means (GM) and ranges. As an antifungal susceptibility testing control, the activity of ITC and AMB against the reference strains C. krusei ATCC 6258 and C. parapsilosis ATCC 22019 was evaluated in all experiments following the CLSI standard M27, 4th Edition. […]

[17] = test system: C. auris; design: method as in PMID 31980703; settings: cited from earlier work
[18] = Cytotoxicity, MTT assay; settings: human, HaCaT keratinocyte cells
Description: Cells were cultured in Dulbecco’s Modified Eagle Medium (DMEM; Sigma-Aldrich, St. Louis, MO, USA) supplemented with 10% fetal bovine serum (Invitrogen, Carlsbad, CA, USA), 1% penicillin, streptomycin, and neomycin (Invitrogen, Carlsbad, CA, USA), and 1% L-glutamine (Invitrogen, Carlsbad, CA, USA) at 37 °C in a humidified atmosphere of 5% CO2. […] Afterwards, the culture medium was removed and 3-(4.5-dimethylthiazol-2-yl)-2.5-diphenyltetrazolium bromide (MTT) (Sigma-Aldrich, St. Louis, MO, USA) at 5 mg/mL was added at 37 °C for 2 h. Subsequently, DMSO was added to dissolve the formazan crystals. Finally, the absorbances were measured with a Multiskan SkyHigh Microplate Spectrophotometer (Thermo Fisher Scientific, Waltham, MA, USA) at λ = 570 nm. The CC50 values were obtained by linear regression analysis with concentration–response curves, which were performed with absorbance data using GraphPad Prism software (Prism 9.3.0, San Diego, CA, USA). The assays were conducted at two separate times in triplicate. The data were expressed as means.

**Q.** What does the source list for Cc1ccc(C(C)C)cc1O [Carvacrol, carvacrol]?
**A.** MIC [1]: 256 µg/mL (≈ 1700 µM); MIC [2]: 128 µg/mL (≈ 852 µM); MIC [3]: 128 µg/mL (≈ 852 µM); MIC [4]: 128 µg/mL (≈ 852 µM); Range MIC ([5]; C. lusitaniae MUM 17.08, EOs and terpenes): 128 to 256 µg/mL; MIC ([5]; Clavispora lusitaniae, MUM17.08, 24 h, read-out: GM MIC): 181 µg/mL (≈ 1200 µM); Range MIC ([6]; C. auris CDC B11903, EOs and terpenes): 64 to 128 µg/mL; MIC ([6]; Candidozyma auris, CDCB11903, 24 h, read-out: GM MIC): 90.5 µg/mL (≈ 602 µM); Range MIC ([7]; C. auris Ca 13, EOs and terpenes): 128 to 256 µg/mL; MIC ([7]; Candidozyma auris, CA13, 24 h, read-out: GM MIC): 181 µg/mL (≈ 1200 µM); MIC [8]: 128 µg/mL (≈ 852 µM); Range MIC ([9]; C. auris Ca 1, EOs and terpenes): 128 to 256 µg/mL; MIC ([9]; Candidozyma auris, CA1, 24 h, read-out: GM MIC): 181 µg/mL (≈ 1200 µM); MIC [10]: 64 µg/mL (≈ 426 µM); Range MIC ([11]; C. auris Ca 41, EOs and terpenes): 64 to 128 µg/mL; MIC ([11]; Candidozyma auris, CA41, 24 h, read-out: GM MIC): 90.5 µg/mL (≈ 602 µM); Range MIC ([12]; C. auris Ca 45, EOs and terpenes): 64 to 128 µg/mL; MIC ([12]; Candidozyma auris, CA45, 24 h, read-out: GM MIC): 90.5 µg/mL (≈ 602 µM); MIC [13]: 64 µg/mL (≈ 426 µM); MIC [14]: 256 µg/mL (≈ 1700 µM); Range MIC ([15]; C. parapsilosis Synlab 406, EOs and terpenes): 32 to 64 µg/mL; MIC ([15]; Lodderomyces parapsilosis, SYNLAB406, 24 h, read-out: GM MIC): 45.3 µg/mL (≈ 302 µM); antifungal activity in screening [16]: active against all tested Candida spp.; MIC Range [17]: 63 to 250 µg/mL; CC50 at 24 h [18]: 411 µg/mL (≈ 2730 µM)
